Results on five molecules are retold here after patent US5135952A, “Antiinflammatory and/or antiallergic methods” (Senju Pharmaceutical Co., ltd., priority 1989, dated 1992).

One data set concerns platelet. The note with it: previously discovered by the inventors (Japanese Kokai 63-8337/1988; Japanese Application 1-79956/1989); cited from earlier work.
A further data set concerns male ddY mice. In words: Intravenous Acute Toxicity Study. In kind it is in vivo, mouse (male ddY). As to conditions: i.v.; 100, 200, 400, 800 and 1,600 mg/kg; seventy-two-hour observation; groups of 5. Here is the method:
Intravenous Acute Toxicity Study
The intravenous acute toxicity study of DCE-GS was conducted in male ddY mice, weighing about 20 g, in groups of 5. The doses were 100, 200, 400, 800 and 1,600 mg/kg (common ratio 2). All the injections were adjusted with 1N sodium hydrochloride to pH 7.

In data set [1] the test system is passive anaphylaxis of the back of the rat. In words: Effect on Passive Anaphylaxis of the Back of the Rat. In kind it is in vivo, rat (male Wistar). As to conditions: for Area, Inhibition (%) / Dye, Inhibition (%) / Area (of stain) / Dye: 30 minutes; for Area (of stain) / Dye: mean ± S.E., n = 4 or 5; for Area (of stain): saline 926 ± 65; for Dye: saline 767 ± 87. Here is the method: Effect on Passive Anaphylaxis of the Back of the Rat
Male Wistar rats weighing about 130 g were used in the experiment. The back hair of each rat was clipped with clippers. The rat antiserum was injected intradermally at the back of the rat. After three days, DCE-GS was administered in doses of 3, 10 and 30 mg/kg (physiological saline to controls) into the caudal vein and after one minute 1 ml of a 50:50 (v/v) mixture of the antigen 1% ovalbumin and 2% Evans blue was administered intravenously to induce passive anaphylaxis. After 30 minutes, the rat was sacrificed and the stained area was determined. The pertinent area was removed and the dye was extracted with 20 ml of formaldehyde for determination.

The conditions of data set [2]: previously discovered by the inventors (Japanese Kokai 63-8337/1988; Japanese Application 1-79956/1989); cited from earlier work.
The test system of data set [3] is carrageenan-induced conjunctival edema. In words: Effect on Rat Carrageenan-Induced Conjunctival Edema. In kind it is in vivo, rat (male Wistar). The note with it: for effect on rat carrageenan-induced conjunctival edema, in words: DCE-GS 3, 10, 30 mg/kg i.v., ester derivatives and GSH 30 mg/kg; for Edema weight / % Inhibition (edema weight): 3 hours, n = 10; for Edema weight: mean ± S.E. On the procedure:
Effect on Rat Carrageenan-Induced Conjunctival Edema Male Wistar rats weighing about 130 g were used in the experiment. S-(α,β-Dicarboxyethyl)glutathione (hereinafter referred to as DCE-GS) dissolved in physiological saline and adjusted with sodium hydrochloride to pH 7 was administered in doses of 3, 10 and 30 mg/kg to rats through the caudal vein (control group: physiological saline). […] One minute later, 50 μl of 1% carrageenan solution was injected beneath the palpebral conjunctiva of the rat under pentobarbital anesthesia. After three hours, each rat was sacrificed and conjunctival edema was isolated and weighted.
On the technique in general: Carrageenan injected into the paw causes an acute inflammation.

In data set [4] the test system is rat peritoneal mast cells. In words: Inhibitory Effect on the Release of Histamine from Rat Peritoneal Exudate Cells (Compound 48/80-induced). The data set is classed as cell-based, rat (male SD). The note with it: for % Release (histamine): mean ± S.E., boiled control specimen = 100%, control 75.0 ± 6.7. Here is the method:
Inhibitory Effect on the Release of Histamine from Rat Peritoneal Exudate Cells
(1) Preparation of rat peritoneal cell suspension
Male SD rats weighing 250 to 280 g were used. The rat peritoneal cells were collected and isolated according to the method of Sullivan et al. First, the rat was bled to death by decapitation and immediately the hair of the abdomen was shaved, the skin was incised a few centimeters, and 10 ml of mast cell medium (MCM) was injected into the peritoneal cavity using a 18-G needle while picking up the muscle with tweezers, followed by 90-sec gentle massage. Then, the abdomen was opened to collect as much ascites as possible using a Terumo syringe. The ascites contaminated with blood was not used in the experiment. The ascites was layered in a polycarbonate tube containing 2 ml of 40% Ficoll 400 (Pharmacia) dissolved in MCM, allowed to stand at room temperature for 30 minutes, and centrifuged at 700 rpm at 4° C. for 10 minutes. Then, the sediment in the upper layer of Ficoll 400 was pipetted and washed three times with about 7 ml of MCM. The cells were counted with a Burker-Turk cytometer and using MCM as a diluent, a cell suspension of about 10^5 cells/ml (rat peritoneal cell suspension) was prepared. Mast cells were identified by staining intracellular granules with 0.05% toluidine blue.
(2) Release of histamine from mast cells
After 0.8 ml of rat peritoneal cell suspension was preincubated at 37° C. for 10 minutes, 0.1 ml of the test drug was added. The system was incubated for 5 minutes, at the end of which time 0.1 ml of 10 μg/ml of Compound 48/80 (Sigma) in physiological saline was added. After 10 minutes' incubation, the reaction mixture was cooled in ice-water for 10 minutes to terminate the reaction and centrifuged at 700 rpm at 4° C. for 5 minutes. Then, histamine in the supernatant was determined by HPLC in accordance with the method of Shore et al. as partially modified.

The nature of another data set: hygroscopicity. In kind it is physicochemical.
Setting [5] is: Table 2, 30 mg/kg, *p < 0.01, **p < 0.001 vs saline (73.7 ± 2.9).

For `N[C@@H](CCC(=O)N[C@@H](CSC(CC(=O)O)C(=O)O)C(=O)NCC(=O)O)C(=O)O` (stereo partly drawn) [DCE-GS, S-(α,β-Dicarboxyethyl)glutathione], the “platelet aggregation inhibitory activity” value in the data set with platelet was “platelet aggregation inhibitory activity”. Further, the “death / abnormal behavior” value in the data set on male ddY mice is reported as “neither death nor abnormal behavior”. In addition, the “Area, Inhibition (%)” value in data set [1] (3 mg/kg i.v.) was found to be 6.5%; in data set [1] (10 mg/kg i.v.), 30.5%; in data set [1] (30 mg/kg i.v.), 47.2%. Also, the “Dye, Inhibition (%)” value in data set [1] (3 mg/kg i.v.) is 17.5%; in data set [1] (10 mg/kg i.v.), 38.5%; in data set [1] (30 mg/kg i.v.), 43.4%. In addition, the “Area (of stain)” value in data set [1] (3 mg/kg i.v., *p < 0.05) is reported as 866 ± 195 mm^2; in data set [1] (10 mg/kg i.v., **p < 0.01) it was 644 ± 88 mm^2; in data set [1] (30 mg/kg i.v., ***p < 0.001) it was 489 ± 47 mm^2. For the same molecule, the Dye amounted to 633 ± 111 μg/site in data set [1] (3 mg/kg i.v.); 472 ± 98 μg/site in data set [1] (10 mg/kg i.v.); 434 ± 77 μg/site in data set [1] (30 mg/kg i.v., *p < 0.05). The “inhibition of area of stain and amount of dye, in words” value in data set [1] (3, 10 and 30 mg/kg i.v.) was “inhibited both the area of stain and the amount of dye on the rat back dose-dependently”. For the same molecule, in data set [2], the antihemogglutination activity entry is given as “antihemogglutination activity”. Besides, the “effect on rat carrageenan-induced conjunctival edema, in words” value in data set [3] was “inhibited rat carrageenan-induced conjunctival edema dose-dependently”. For the same molecule, the “Edema weight” value in data set [3] (Table 1, 3 mg/kg i.v. (caudal vein), *p < 0.001 vs saline (71.7 ± 3.6)) came to 50.5 ± 1.9 mg; in data set [3] (Table 1, 10 mg/kg i.v., *p < 0.001 vs saline (71.7 ± 3.6)) it was 44.9 ± 2.4 mg; in data set [3] (Table 1, 30 mg/kg i.v., *p < 0.001 vs saline (71.7 ± 3.6)) it was 44.9 ± 2.2 mg. The “% Inhibition (edema weight)” value was found to be 29.6% in data set [3] (Table 1, 3 mg/kg i.v.); 37.4% in data set [3] (Table 1, 10 mg/kg i.v.); 37.4% in data set [3] (Table 1, 30 mg/kg i.v.). The “% Release (histamine)” value in data set [4] (10^-3 M, n = 3) was determined as 2.9 ± 3.4%; in data set [4] (10^-4 M, n = 3), 59.4 ± 6.2%; in data set [4] (10^-5 M, n = 3), 73.4 ± 6.5%. The “inhibition of histamine release, in words” value in data set [4] (10^-5 to 10^-3 M) is “inhibited histamine release concentration-dependently”. The inhibition at 1000 µM in data set [4] (Rattus norvegicus, Mast cell, 10^-3 M, n = 3) worked out at 96.1%. Also, in data set [4] (Rattus norvegicus, Mast cell, 10^-4 M, n = 3), at 100 µM the inhibition was 20.8%. The inhibition at 10 µM in data set [4] (Rattus norvegicus, Mast cell, 10^-5 M, n = 3) turned out to be 2.1%.
Consider `N[C@@H](CCC(=O)N[C@@H](CS)C(=O)NCC(=O)O)C(=O)O` [GSH, glutathione, reference compound], for which the “effect on rat carrageenan-induced conjunctival edema, in words” value in data set [3] is listed as “no antiinflammatory effect”. The same molecule returned an Edema weight in data set [3] (setting [5]) of 74.8 ± 3.5 mg. The “% Inhibition (edema weight)” value in data set [3] (Table 2, 30 mg/kg) is reported as -1.5%.
`CCOC(=O)CC(SC[C@H](NC(=O)CC[C@H](N)C(=O)O)C(=O)NCC(=O)O)C(=O)OCC` (stereo partly drawn) [DCE-GS diethyl ester sodium, S-(diethyl-α,β-dicarboxyethyl)glutathione sodium]: the Edema weight in data set [3] (setting [5]) is on record as 49.7 ± 2.6 mg. Also, the “% Inhibition (edema weight)” value in data set [3] (Table 2, 30 mg/kg) stood at 32.6%.
Turning to `CCCCOC(=O)CC(SC[C@H](NC(=O)CC[C@H](N)C(=O)O)C(=O)NCC(=O)O)C(=O)OCCCC` (stereo partly drawn) [DCE-GS di-n-butyl ester sodium, S-(di-n-butyl-α,β-dicarboxyethyl)glutathione sodium], the hygroscopicity result in the data set “hygroscopicity” was “hygroscopic”. The molecule also yielded an Edema weight in data set [3] (setting [5]) of 60.9 ± 2.8 mg. Also, the “% Inhibition (edema weight)” value in data set [3] (Table 2, 30 mg/kg) stood at 17.4%.
Take “S-(monoethyl-α,β-dicarboxyethyl)glutathione sodium [DCE-GS monoethyl ester sodium]”: the Edema weight in data set [3] (setting [5]) stood at 58.5 ± 2.0 mg. Further, the “% Inhibition (edema weight)” value in data set [3] (Table 2, 30 mg/kg) stood at 20.6%.

The term inhibition denotes the drop in the measured response relative to a control, in per cent. A low value points to a weak effect.
